Measurements taken from PubChem BioAssay (NCI).
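In this assay, cells in 96-well plates receive the compound at five concentrations for 48 hours. Endpoints are linearly interpolated between the surrounding concentrations. GI50 = concentration required for 50% inhibition of growth. TGI marks complete inhibition of growth.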

Tests used:
Experiment in all cases: NCI-60 cell line screen, 48 h
MALME-3M melanoma = tested on: MALME-3M melanoma
OVCAR-3 ovarian = tested on: OVCAR-3 ovarian
SN12C renal = tested on: SN12C renal
SF-295 CNS = tested on: SF-295 CNS
SW-620 colon = tested on: SW-620 colon
IGROV1 ovarian = tested on: IGROV1 ovarian
KM20L2 colon = tested on: KM20L2 colon
DMS 114 small cell lung = tested on: DMS 114 small cell lung
M14 melanoma = tested on: M14 melanoma
UACC-257 melanoma = tested on: UACC-257 melanoma
OVCAR-8 ovarian = tested on: OVCAR-8 ovarian

| Compound | TGI (MALME-3M melanoma) | TGI (OVCAR-3 ovarian) | TGI (SN12C renal) | TGI (SF-295 CNS) | TGI (SW-620 colon) | TGI (IGROV1 ovarian) | TGI (KM20L2 colon) | TGI (DMS 114 small cell lung) | TGI (M14 melanoma) | TGI (UACC-257 melanoma) | TGI (OVCAR-8 ovarian) | GI50 (MALME-3M melanoma) | GI50 (OVCAR-3 ovarian) | GI50 (SN12C renal) | GI50 (SF-295 CNS) | GI50 (SW-620 colon) | GI50 (IGROV1 ovarian) | GI50 (M14 melanoma) | GI50 (UACC-257 melanoma) | GI50 (OVCAR-8 ovarian) |
| --- | --- | --- | --- | --- | --- | --- | --- | --- | --- | --- | --- | --- | --- | --- | --- | --- | --- | --- | --- | --- |
| CCCCCCCCC[C@@H]1C[C@H](O)[C@H](Cc2ccccc2)N1C(=O)OC(C)(C)C | 34.5 µM | 34.6 µM | 31 µM | 30.1 µM | 38.4 µM | 33.3 µM | 34.5 µM | 32.4 µM | 38.4 µM | 30.6 µM | 34.3 µM |  |  |  |  |  |  |  |  |  |
| O=c1n(CC2CO2)c2ccccc2n1CC1CS1 (stereo not given) | > 100 µM | > 100 µM | > 100 µM | > 100 µM | > 100 µM | > 100 µM | > 100 µM | > 100 µM | > 100 µM |  | > 100 µM |  |  |  |  |  |  |  |  |  |
| O=[N+]([O-])c1cnccc1-n1nnc2ccccc21 | 45.5 µM | > 31.6 µM | 37.7 µM | > 74.7 µM | 52 µM | 47.6 µM | > 100 µM | 26.6 µM |  | 51.4 µM | 50.8 µM |  |  |  |  |  |  |  |  |  |
| c1ccc2c(CCNC3=NCCO3)cccc2c1 | > 10 µM | > 10 µM |  | > 10 µM | > 10 µM | > 10 µM |  |  | > 10 µM |  | > 10 µM |  |  |  |  |  |  |  |  |  |
| O=C(O)c1cc2sc(C(=O)O)cc2s1 | > 100 µM | > 100 µM | > 100 µM | > 100 µM | > 100 µM | > 100 µM | > 100 µM | > 100 µM | > 100 µM | > 100 µM |  |  |  |  |  |  |  |  |  |  |
| O=[N+]([O-])c1ccc(N/N=C\c2ccc(O)cc2O)nc1 | > 100 µM | 42.1 µM | > 100 µM | > 100 µM | > 100 µM | > 100 µM |  |  | 4.85 µM | > 100 µM | > 100 µM | 2.61 µM | 0.398 µM | 3.12 µM | 2.96 µM | 2.69 µM | 3.4 µM | 1.44 µM | 3.37 µM | 1.52 µM |
| Nc1[nH]nc2c1Cc1c(n(Cc3ccc(Cl)cc3)c3ccccc13)C(=O)N2 | 52.3 µM | 30.5 µM | 28 µM | 35.9 µM | > 100 µM | 31.8 µM |  |  | 26 µM | 46.4 µM | 39.2 µM |  |  |  |  |  |  |  |  |  |
| CC(=O)Nc1ccc(C(=O)NN2C(=O)C(Cl)C2/C=C/c2ccccc2)cc1 (stereo not given) | > 100 µM | > 100 µM |  | > 100 µM | > 100 µM | > 100 µM |  |  |  | > 100 µM | > 100 µM |  |  |  |  |  |  |  |  |  |
| CSc1nc(NC2OC(CO)C(O)C(O)C2O)c(N)c(=O)[nH]1 (stereo not given) | > 100 µM | > 100 µM | > 100 µM | > 100 µM | > 100 µM | > 100 µM | > 100 µM | > 100 µM |  | > 100 µM | > 100 µM |  |  |  |  |  |  |  |  |  |
| COC(=O)C(Cc1cc(OC)c(OC)c(OC)c1)(NC(=O)c1ccccc1)P(=O)(OC)OC (stereo not given) |  |  | > 100 µM | > 100 µM | > 100 µM | > 100 µM | > 100 µM | > 100 µM | > 100 µM | > 100 µM | > 100 µM |  |  |  |  |  |  |  |  |  |
| O=C1CN2CCN(CC2)CC(=O)Nc2ccc(cc2)S(=O)(=O)c2ccc(cc2)NC(=O)CN2CCN(CC2)CC(=O)Nc2ccc(cc2)S(=O)(=O)c2ccc(cc2)N1 | 38.8 µM | > 100 µM | > 100 µM | > 100 µM | 50.7 µM | > 100 µM |  |  | > 78.6 µM | > 100 µM | > 100 µM |  |  |  |  |  |  |  |  |  |
